Test results reported in US20070249670A1, “Glycogen Phosphorylase Inhibitor Compounds and Pharmaceutical Compositions Thereof” (SMITHKLINE BEECHAM CORPORATION, priority 2004, published 2007).
Where a name gives a salt, the structure may show the parent alone.

Target: T1, human liver glycogen phosphorylase a (HLGPa) (Homo sapiens, UniProt P06737)
T1 construct: creating a full-length cDNA fused at the 5′ end to codons for methionine-glycine-alanine-histidine; 6xHis tag (leader Met-Gly-Ala-His6-Gly-Gly) (N); made in house; host or cells: E. coli (bacterial expression plasmid pTXK1007LTev)
T1 sequence (P06737 2-847 limits assumed): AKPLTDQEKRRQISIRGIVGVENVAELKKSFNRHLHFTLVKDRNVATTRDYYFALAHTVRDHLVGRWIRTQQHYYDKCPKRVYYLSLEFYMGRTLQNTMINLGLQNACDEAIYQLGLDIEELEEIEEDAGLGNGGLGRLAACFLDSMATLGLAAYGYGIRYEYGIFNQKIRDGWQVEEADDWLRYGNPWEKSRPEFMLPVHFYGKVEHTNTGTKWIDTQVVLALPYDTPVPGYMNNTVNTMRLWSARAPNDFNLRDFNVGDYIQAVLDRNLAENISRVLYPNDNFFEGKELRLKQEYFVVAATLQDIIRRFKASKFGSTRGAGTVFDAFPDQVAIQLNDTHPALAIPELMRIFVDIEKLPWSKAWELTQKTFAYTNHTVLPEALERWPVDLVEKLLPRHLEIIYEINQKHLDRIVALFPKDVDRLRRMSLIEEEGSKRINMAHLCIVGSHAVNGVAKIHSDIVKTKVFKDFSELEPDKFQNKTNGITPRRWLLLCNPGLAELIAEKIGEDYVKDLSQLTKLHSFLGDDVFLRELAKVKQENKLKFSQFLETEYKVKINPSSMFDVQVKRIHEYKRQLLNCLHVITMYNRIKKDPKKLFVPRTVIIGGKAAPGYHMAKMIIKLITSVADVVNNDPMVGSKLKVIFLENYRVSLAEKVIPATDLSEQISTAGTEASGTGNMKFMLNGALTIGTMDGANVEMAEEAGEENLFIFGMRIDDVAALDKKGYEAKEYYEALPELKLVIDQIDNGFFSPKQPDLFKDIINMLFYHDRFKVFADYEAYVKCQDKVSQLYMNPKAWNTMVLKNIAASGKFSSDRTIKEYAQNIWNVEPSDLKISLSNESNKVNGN
Test: Human liver glycogen phosphorylase a enzymatic activity assay (coupled, fluorescent resorufin readout, with and without 10 mM glucose)
Assay type: biochemical

[1] = human liver glycogen phosphorylase a, table does not say whether with or without 10 mM glucose
[2] = human liver glycogen phosphorylase a enzymatic activity assay

SMILES	IC50 [1] [nM]	IC50 [2] [nM]
O=C(Nc1cc(-c2ccccc2)ccc1C(=O)N[C@H](C(=O)O)C1CCCCC1)Nc1c(Cl)cc(Cl)cc1Cl [Example 200, (2S)-Cyclohexyl({[3-({[(2,4,6-trichlorophenyl)amino]carbonyl}amino)-4-biphenylyl]carbonyl}amino)ethanoic acid]	130	
Cc1cccc(C)c1NC(=O)Nc1cc2ccccc2cc1C(=O)N[C@@H](Cc1c[nH]c2ccccc12)C(=O)O [Example 54, N-[3-({[(2,6-dimethylphenyl)amino]carbonyl}amino)-2-naphthoyl]-L-tryptophan trifluoroacetate]		510
CC[C@H](C)[C@H](NC(=O)c1c(NC(=O)Nc2c(C)cc(C)cc2C)sc2c1CCCC2)C(=O)O [Example 127, N-[(2-{[(mesitylamino)carbonyl]amino}-4,5,6,7-tetrahydro-1-benzothien-3-yl)carbonyl]-L-isoleucine]		18200
COc1ccc(-c2cc(NC(=O)Nc3c(C)cc(C)cc3C)c(C(=O)N[C@H](C(=O)O)C(C)C)s2)cc1 [Example 440]		100
Cc1cccc(Cl)c1NC(=O)Nc1sc2c(c1C(=O)N[C@@H](CC(C)C)C(=O)O)CCCC2 [Example 130, N-{[2-({[(2-chloro-6-methylphenyl)amino]carbonyl}amino)-4,5,6,7-tetrahydro-1-benzothien-3-yl]carbonyl}-L-leucine]		18000
COC(=O)[C@@H](NC(=O)c1cc(-c2ccccc2)sc1NC(=O)Nc1c(Cl)cccc1Cl)C1CCCCC1 [Example 383, methyl(2S)-cyclohexyl({[2-({[(2,6-dichlorophenyl)amino]carbonyl}amino)-5-phenyl-3-thienyl]carbonyl}amino)ethanoate]	2370	
Cc1cccc(Cl)c1NC(=O)Nc1cc(F)c(F)cc1C(=O)N[C@@H](Cc1ccccc1)C(=O)O [Example 72, N-[2-({[(2-chloro-6-methylphenyl)amino]carbonyl}amino)-4,5-difluorobenzoyl]-L-phenylalanine]		10900
COc1cc(NC(=O)Nc2c(C)cccc2Cl)c(C(=O)N[C@@H](Cc2c[nH]c3ccccc23)C(=O)O)cc1OC [Example 75, N-[2-({[(2-chloro-6-methylphenyl)amino]carbonyl}amino)-4,5-dimethoxybenzoyl]-L-tryptophan trifluoroacetate]		760
Cc1cccc(Cl)c1NC(=O)Nc1cc(F)c(F)cc1C(=O)N[C@@H](CC(C)C)C(=O)O [Example 68, N-[2-({[(2-chloro-6-methylphenyl)amino]carbonyl}amino)-4,5-difluorobenzoyl]-L-leucine]		7540
Cc1cccc(Cl)c1NC(=O)Nc1cc2ccccc2cc1C(=O)N[C@@H](C)C(=O)O [Example 33, N-[3-({[(2-chloro-6-methylphenyl)amino]carbonyl}amino)-2-naphthoyl]-L-alanine]		520
COc1ccc(-c2nc(C(=O)N[C@H](C(=O)O)C3CCCCC3)c(NC(=O)Nc3c(C)cccc3C(C)C)s2)cc1 [Example 486]		1780
O=C(Cc1c(Cl)ccc(Cl)c1Cl)Nc1cc2ccccc2cc1C(=O)N[C@H](C(=O)O)C1CCCCC1 [Example 459, (2S)-cyclohexyl{[(3-{[(2,3,6-trichlorophenyl)acetyl]amino}-2-naphthalenyl)carbonyl]amino}ethanoic acid]		180
COc1ccc(-c2ccc(C(=O)NC3(C(=O)O)CCCCCCC3)c(NC(=O)Nc3c(C)cc(C)cc3C)c2)cc1F [Example 238, 1-({[3′-Fluoro-4′-(methyloxy)-3-({[(2,4,6-trimethylphenyl)amino]carbonyl}amino)-4-biphenylyl]carbonyl}amino)cyclooctanecarboxylic acid]	10	
Cc1cc(C)c(NC(=O)Nc2cc(-c3ccc(F)c(F)c3)ccc2C(=O)N[C@@H](CC(=O)O)C(=O)O)c(C)c1 [Example 375, N-{[3′,4′-difluoro-3-({[(2,4,6-trimethylphenyl)amino]carbonyl}amino)-4-biphenylyl]carbonyl}-L-aspartic acid]	43	
CCCC[C@H](NC(=O)c1ccc(-c2ccc(OC)cc2)cc1NC(=O)Nc1c(C)cc(C)cc1C)C(=O)O [Example 219, N-{[4′-(methyloxy)-3-({[(2,4,6-trimethylphenyl)amino]carbonyl}amino)-4-biphenylyl]carbonyl}-L-norleucine]	15	
COc1cc(NC(=O)Nc2c(C)cccc2C)c(C(=O)N[C@@H](CC2CCCCC2)C(=O)O)cc1OC [Example 119, 3-cyclohexyl-N-[2-({[(2,6-dimethylphenyl)amino]carbonyl}amino)-4,5-dimethoxybenzoyl]-L-alanine]		13600
Cc1cccc(Cl)c1NC(=O)Nc1cc2ccccc2cc1C(=O)N[C@H](Cc1ccccc1F)C(=O)O [Example 124, N-[3-({[(2-chloro-6-methylphenyl)amino]carbonyl}amino)-2-naphthoyl]-2-fluoro-D-phenylalanine]		5820
COc1cc(NC(=O)Nc2c(C)cccc2Cl)c(C(=O)N[C@@H](Cc2ccccc2)C(=O)O)cc1OC [Example 73, N-[2-({[(2-chloro-6-methylphenyl)amino]carbonyl}amino)-4,5-dimethoxybenzoyl]-L-phenylalanine]		11600
Cc1cc(C)c(NC(=O)Nc2cc3ccccc3cc2C(=O)N[C@H](C(=O)O)C2CCC(O)CC2)c(C)c1 (stereo partly drawn) [Example 502, (2S)-(4-hydroxycyclohexyl)({[3-({[(2,4,6-trimethylphenyl)amino]carbonyl}amino)-2-naphthalenyl]carbonyl}amino)ethanoic acid]		13
Cc1cccc(C)c1NC(=O)Nc1cc2ccccc2cc1C(=O)NC(C(=O)O)c1ccccc1 (centres unmarked) [Example 97, {[3-({[(2,6-dimethylphenyl)amino]carbonyl}amino)-2-naphthoyl]amino}(phenyl)acetic acid]		660
COc1ccc(-c2cc(NC(=O)Nc3c(C)cc(C)cc3C)c(C(=O)NC3(C(=O)O)CC3)s2)cc1 [Example 449, 1-({[5-[4-(methyloxy)phenyl]-3-({[(2,4,6-trimethylphenyl)amino]carbonyl}amino)-2-thienyl]carbonyl}amino)cyclopropanecarboxylic acid]		340
Cc1cc(C)c(NC(=O)Nc2cc(-c3ccc(F)c(F)c3)ccc2C(=O)NC2(C(=O)O)CCCCCCC2)c(C)c1 [Example 227, 1-({[3′,4′-Difluoro-3-({[(2,4,6-trimethylphenyl)amino]carbonyl}amino)-4-biphenylyl]carbonyl}amino)cyclooctanecarboxylic acid]	1	
Cc1cc(C)c(NC(=O)Nc2cc3ccccc3cc2C(=O)NCCC(=O)O)c(C)c1 [Example 494, N-{[3-({[(2,4,6-trimethylphenyl)amino]carbonyl}amino)-2-naphthalenyl]carbonyl}-beta-alanine]		360
O=C(O)C[C@H](NC(=O)c1cc2ccccc2cc1NC(=O)Nc1ccccc1Br)C(=O)O [Example 90, N-[3-({[(2-bromophenyl)amino]carbonyl}amino)-2-naphthoyl]-L-aspartic acid]		22900
Cc1cccc(C(C)C)c1NC(=O)Nc1sc2c(c1C(=O)N[C@@H](CC(=O)O)C(=O)O)CCCC2 [Example 135, N-{[2-({[(2-isopropyl-6-methylphenyl)amino]carbonyl}amino)-4,5,6,7-tetrahydro-1-benzothien-3-yl]carbonyl}-L-aspartic acid]		17900
COc1ccccc1-c1ccc(C(=O)N[C@H](C(=O)O)[C@@H](C)OC(C)(C)C)c(NC(=O)Nc2c(C)cc(C)cc2C)c1 [Example 524, O-(1,1-Dimethylethyl)-N-{[2′-(methyloxy)-3-({[(2,4,6-trimethylphenyl)amino]carbonyl}amino)-4-biphenylyl]carbonyl}-L-threonine]		11
O=C(Nc1ccccc1Cl)Nc1cc(F)c(F)cc1C(=O)N[C@@H](Cc1c[nH]c2ccccc12)C(=O)O [Example 76, N-[2-({[(2-chlorophenyl)amino]carbonyl}amino)-4,5-difluorobenzoyl]-L-tryptophan trifluoroacetate]		3740
CCCc1cc(C)c(NC(=O)Nc2cc(-c3ccc(OC)cc3)ccc2C(=O)N[C@@H](CC(=O)O)C(=O)O)c(C)c1 [Example 370, N-{[3-({[(2,6-dimethyl-4-propylphenyl)amino]carbonyl}amino)-4′-(methyloxy)-4-biphenylyl]carbonyl}-L-aspartic acid]	2	
COC(=O)C(NC(=O)c1cc2ccccc2cc1NC(=O)Nc1c(C)cc(C)cc1C)C1CCC(NC(=O)OC(C)(C)C)CC1 (mixture of isomers) [Example 349, (cis and trans)-methyl[4-({[(1,1-dimethylethyl)oxy]carbonyl}amino)cyclohexyl] ({[3-({[(2,4,6-trimethylphenyl)amino]carbonyl}amino)-2-naphthalenyl]carbonyl}amino)acetate]	6890	
